Laboratory results as given in patent publication US10588317B2, “Isoxazoline-substituted benzamides and analogues as insecticides” (priority 2015, dated 2020).

Columns and labels:
Assay type in all cases: in vivo
[1] = test system: Tetranychus urticae; experiment: Tetranychus urticae (two-spotted spider mite): feeding/contact activity; settings: 192 h, application rate 200 ppm, mixed population (mobile stages), 8 days after infestation, read-out: mortality
Method: Bean leaf discs on agar in 24-well microtiter plates were sprayed with aqueous test solutions prepared from 10'000 ppm DMSO stock solutions. After drying the leaf discs were infested with a mite population of mixed ages. The samples were assessed for mortality on mixed population (mobile stages) 8 days after infestation.

[2] = test system: Spodoptera littoralis; experiment: Spodoptera littoralis (Egyptian cotton leaf worm), sprayed cotton leaf discs; settings: foliar, 72 h, application rate 200 ppm, L1 larvae, 3 days after infestation, read-out: control (mortality, anti-feeding effect, growth inhibition)
Method: Cotton leaf discs were placed onto agar in 24-well microtiter plates and sprayed with aqueous test solutions prepared from 10'000 ppm DMSO stock solutions. After drying the leaf discs were infested with five L1 larvae. The samples were assessed for mortality, anti-feeding effect, and growth inhibition in comparison to untreated samples 3 days after infestation. Control of Spodoptera littoralis by a test sample is given when at least one of the categories mortality, anti-feedant effect, and growth inhibition is higher than the untreated sample.

[3] = test system: Euschistus heros; experiment: Euschistus heros (neotropical brown stink bug), sprayed soybean leaves; settings: 120 h, application rate 200 ppm, N2 nymphs, 5 days after infestation, read-out: effect in at least one of the two categories (mortality or growth inhibition)
Method: Soybean leaves on agar in 24-well microtiter plates were sprayed with aqueous test solutions prepared from 10'000 ppm DMSO stock solutions. After drying the leaves were infested with N2 nymphs. The samples were assessed for mortality and growth inhibition in comparison to untreated samples 5 days after infestation.
(§1) The following compounds gave an effect of at least 80% in at least one of the two categories (mortality or growth inhibition) at an application rate of 200 ppm: […]

[4] = test system: Myzus persicae; experiment: Myzus persicae (green peach aphid): feeding/contact activity; settings: 144 h, application rate 200 ppm, aphid population of mixed ages, 6 days after infestation, read-out: mortality
Method: (§2) Sunflower leaf discs were placed onto agar in a 24-well microtiter plate and sprayed with aqueous test solutions prepared from 10'000 ppm DMSO stock solutions. After drying, the leaf discs were infested with an aphid population of mixed ages. The samples were assessed for mortality 6 days after infestation.

[5] = test system: Plutella xylostella; experiment: Plutella xylostella (diamond back moth), artificial diet; settings: 120 h, application rate 200 ppm, L2 larvae, 5 days after infestation, read-out: effect in at least one of the two categories (mortality or growth inhibition)
Method: (§3) 24-well microtiter plates with artificial diet were treated with aqueous test solutions prepared from 10'000 ppm DMSO stock solutions by pipetting. After drying, the plates were infested with L2 larvae (10 to 15 per well). The samples were assessed for mortality and growth inhibition in comparison to untreated samples 5 days after infestation.
as §1

[6] = test system: Diabrotica balteata; experiment: Diabrotica balteata (corn root worm), sprayed maize sprouts; settings: 96 h, application rate 200 ppm, L2 larvae, 4 days after infestation, read-out: effect in at least one of the two categories (mortality or growth inhibition)
Method: as §3, with “Maize sprouts placed onto an agar layer in 24-well” for “24-well”, “plates” for “plates with artificial diet”, “spraying.” for “pipetting.”, “(6” for “(10”, “10” for “15”, “4” for “5”
as §1

[7] = test system: Thrips tabaci; experiment: Thrips tabaci (onion thrips): feeding/contact activity; settings: 144 h, application rate 200 ppm, Thrips population of mixed ages, 6 days after infestation, read-out: mortality
Method: as §2, with “on” for “onto”, “in” for “in a”, “plates” for “plate”, “drying” for “drying,”, “a Thrips” for “an aphid”

Cc1cc(C2=NO[C@@](c3cc(Cl)c(Cl)c(Cl)c3)(C(F)(F)F)C2)ccc1C(=O)N[C@@H]1CON(S(=O)(=O)C2CC2)C1 [Compound A229, N-[(4S)-2-cyclopropylsulfonyl-1,2-oxazolidin-4-yl]-2-methyl-4-[(5S)-5-(3,4,5-trichlorophenyl)-5-(trifluoromethyl)-4H-1,2-oxazol-3-yl]benzamide]
≥ 80%: mortality at 200 ppm [1] | mortality at 200 ppm [2] | percent effect (mortality or growth inhibition) at 200 ppm [3] | mortality at 200 ppm [4] | percent effect (mortality or growth inhibition) at 200 ppm [5] | percent effect (mortality or growth inhibition) at 200 ppm [6] | mortality at 200 ppm [7]

O=C(N[C@H]1CON(S(=O)(=O)NC2CC2)C1)c1ccc(C2=NO[C@@](c3cc(Cl)cc(Cl)c3)(C(F)(F)F)C2)cc1Cl [Compound A154]
≥ 80%: mortality at 200 ppm [1] | mortality at 200 ppm [2] | percent effect (mortality or growth inhibition) at 200 ppm [3] | mortality at 200 ppm [4] | percent effect (mortality or growth inhibition) at 200 ppm [5] | percent effect (mortality or growth inhibition) at 200 ppm [6] | mortality at 200 ppm [7]

Cc1cc(C2=NO[C@@](c3cc(Cl)c(Cl)c(Cl)c3)(C(F)(F)F)C2)ccc1C(=O)N[C@H]1CON(S(=O)(=O)C(F)F)C1 [Compound A231, N-[(4R)-2-(difluoromethylsulfonyl)-1,2-oxazolidin-4-yl]-2-methyl-4-[(5S)-5-(3,4,5-trichlorophenyl)-5-(trifluoromethyl)-4H-1,2-oxazol-3-yl]benzamide]
≥ 80%: mortality at 200 ppm [1] | mortality at 200 ppm [2] | percent effect (mortality or growth inhibition) at 200 ppm [3] | mortality at 200 ppm [4] | percent effect (mortality or growth inhibition) at 200 ppm [5] | percent effect (mortality or growth inhibition) at 200 ppm [6] | mortality at 200 ppm [7]

Cc1cc(C2=NO[C@@](c3cc(Cl)c(OC(F)F)c(Cl)c3)(C(F)(F)F)C2)ccc1C(=O)N[C@@H]1CON(S(=O)(=O)N(C)C)C1 [Compound A205, 4-[(5S)-5-[3,5-dichloro-4-(difluoromethoxy)phenyl]-5-(trifluoromethyl)-4H-1,2-oxazol-3-yl]-N-[(4S)-2-(dimethylsulfamoyl)-1,2-oxazolidin-4-yl]-2-methylbenzamide]
≥ 80%: mortality at 200 ppm [1] | mortality at 200 ppm [2] | percent effect (mortality or growth inhibition) at 200 ppm [3] | mortality at 200 ppm [4] | percent effect (mortality or growth inhibition) at 200 ppm [5] | percent effect (mortality or growth inhibition) at 200 ppm [6] | mortality at 200 ppm [7]

Cc1cc(C2=NO[C@@](c3cc(Cl)c(F)c(Cl)c3)(C(F)(F)F)C2)ccc1C(=O)N[C@@H]1CON(S(N)(=O)=O)C1 [Compound A208, 4-[(5S)-5-(3,5-dichloro-4-fluorophenyl)-5-(trifluoromethyl)-4H-1,2-oxazol-3-yl]-2-methyl-N-[(4S)-2-sulfamoyl-1,2-oxazolidin-4-yl]benzamide]
≥ 80%: mortality at 200 ppm [1] | mortality at 200 ppm [2] | mortality at 200 ppm [4] | percent effect (mortality or growth inhibition) at 200 ppm [5] | percent effect (mortality or growth inhibition) at 200 ppm [6] | mortality at 200 ppm [7]

Cc1cc(C2=NO[C@](c3cc(Cl)c(F)c(Cl)c3)(C(F)(F)F)C2)ccc1C(=O)N[C@H]1CON(SC(Cl)(Cl)Cl)C1 [Compound A227, 4-[(5R)-5-(3,5-dichloro-4-fluorophenyl)-5-(trifluoromethyl)-4H-1,2-oxazol-3-yl]-2-methyl-N-[(4R)-2-(trichloromethylsulfanyl)-1,2-oxazolidin-4-yl]benzamide]
≥ 80%: mortality at 200 ppm [1] | mortality at 200 ppm [2] | percent effect (mortality or growth inhibition) at 200 ppm [3] | percent effect (mortality or growth inhibition) at 200 ppm [5] | percent effect (mortality or growth inhibition) at 200 ppm [6] | mortality at 200 ppm [7]

Cc1cc(C2=NO[C@@](c3cc(Cl)c(Cl)c(Cl)c3)(C(F)(F)F)C2)ccc1C(=O)NC1CON(S(=O)(=O)C2CC2)C1 (stereo partly drawn) [Compound A29, N-(2-cyclopropylsulfonylisoxazolidin-4-yl)-2-methyl-4-[(5S)-5-(3,4,5-trichlorophenyl)-5-(trifluoromethyl)-4H-isoxazol-3-yl]benzamide]
≥ 80%: mortality at 200 ppm [1] | mortality at 200 ppm [2] | mortality at 200 ppm [4] | percent effect (mortality or growth inhibition) at 200 ppm [5] | percent effect (mortality or growth inhibition) at 200 ppm [6] | mortality at 200 ppm [7]

Cc1cc(C2=NO[C@@](c3cc(Cl)c(Cl)c(Cl)c3)(C(F)(F)F)C2)ccc1C(=O)N[C@H]1CON(S(=O)(=O)CC(F)(F)F)C1 [Compound A221, 2-methyl-4-[(5S)-5-(3,4,5-trichlorophenyl)-5-(trifluoromethyl)-4H-1,2-oxazol-3-yl]-N-[(4R)-2-(2,2,2-trifluoroethylsulfonyl)-1,2-oxazolidin-4-yl]benzamide]
≥ 80%: mortality at 200 ppm [1] | mortality at 200 ppm [2] | percent effect (mortality or growth inhibition) at 200 ppm [3] | percent effect (mortality or growth inhibition) at 200 ppm [5] | percent effect (mortality or growth inhibition) at 200 ppm [6] | mortality at 200 ppm [7]

Cc1cc(C2=NO[C@](c3cc(Cl)c(F)c(Cl)c3)(C(F)(F)F)C2)ccc1C(=O)N[C@H]1CON(S(=O)(=O)CC#N)C1 [Compound A163]
≥ 80%: mortality at 200 ppm [1] | mortality at 200 ppm [2] | percent effect (mortality or growth inhibition) at 200 ppm [3] | percent effect (mortality or growth inhibition) at 200 ppm [5] | percent effect (mortality or growth inhibition) at 200 ppm [6] | mortality at 200 ppm [7]

CS(=O)(=O)N1CC(NC(=O)c2ccc(C3=NOC(c4cc(Cl)cc(Cl)c4)(C(F)(F)F)C3)c3ccccc23)CO1 (stereo not shown) [Compound A46]
≥ 80%: mortality at 200 ppm [1] | mortality at 200 ppm [2] | percent effect (mortality or growth inhibition) at 200 ppm [3] | percent effect (mortality or growth inhibition) at 200 ppm [5] | percent effect (mortality or growth inhibition) at 200 ppm [6] | mortality at 200 ppm [7]

Cc1cc(C2=NO[C@](c3cc(Cl)c(F)c(Cl)c3)(C(F)(F)F)C2)ccc1C(=O)N[C@H]1CON(S(=O)(=O)CC(F)F)C1 [Compound A225, 4-[(5R)-5-(3,5-dichloro-4-fluorophenyl)-5-(trifluoromethyl)-4H-1,2-oxazol-3-yl]-N-[(4R)-2-(2,2-difluoroethylsulfonyl)-1,2-oxazolidin-4-yl]-2-methylbenzamide]
≥ 80%: mortality at 200 ppm [1] | mortality at 200 ppm [2] | percent effect (mortality or growth inhibition) at 200 ppm [3] | percent effect (mortality or growth inhibition) at 200 ppm [5] | percent effect (mortality or growth inhibition) at 200 ppm [6] | mortality at 200 ppm [7]

Cc1cc(C2=NO[C@@](c3cc(Cl)c(F)c(Cl)c3)(C(F)(F)F)C2)ccc1C(=O)NC1CON(S(=O)(=O)NS(C)(=O)=O)C1 (stereo partly drawn) [Compound A102, 4-[(5S)-5-(3,5-dichloro-4-fluoro-phenyl)-5-(trifluoromethyl)-4H-isoxazol-3-yl]-2-methyl-N-[2-(methylsulfonylsulfamoyl)isoxazolidin-4-yl]benzamide]
≥ 80%: mortality at 200 ppm [1] | mortality at 200 ppm [2] | percent effect (mortality or growth inhibition) at 200 ppm [3] | percent effect (mortality or growth inhibition) at 200 ppm [5] | percent effect (mortality or growth inhibition) at 200 ppm [6] | mortality at 200 ppm [7]

COC(=O)CS(=O)(=O)N1C[C@H](NC(=O)c2ccc(C3=NO[C@@](c4cc(Cl)c(F)c(Cl)c4)(C(F)(F)F)C3)cc2C)CO1 [Compound A190, methyl 2-[[(4S)-4-[[4-[(5S)-5-(3,5-dichloro-4-fluorophenyl)-5-(trifluoromethyl)-4H-1,2-oxazol-3-yl]-2-methylbenzoyl]amino]-1,2-oxazolidin-2-yl]sulfonyl]acetate]
≥ 80%: mortality at 200 ppm [1] | mortality at 200 ppm [2] | percent effect (mortality or growth inhibition) at 200 ppm [3] | percent effect (mortality or growth inhibition) at 200 ppm [5] | percent effect (mortality or growth inhibition) at 200 ppm [6] | mortality at 200 ppm [7]
